Columns and labels:
human whole blood = human whole blood assay verifying inhibitory activity of the inhibitor samples; format: cell-based
[1] = test system: PBMCs from asthma subjects; experiment: HG-U133A transcriptional profiling of allergen-stimulated PBMCs of asthma subjects (AOS), with and without cPLA2 inhibitor, 6 days culture; clustering and Ingenuity pathway analysis; format: cell-based, human
Description: (§1) PBMCs were stimulated in vitro with a cocktail containing 4 different allergens from house dust mite, ragweed and cat. Recombinant allergens, Der p1, Der f2, Fel d1 (Indoor Biotech, Charlottesville, Va.) and natural ragweed allergen (Allergy Lab, Seattle, Wash.) were selected and screened for endotoxin contamination (LAL Endotoxin Test, Catalog #HIT302, sensitivity, 0.0001 Eu/ml, Cell Sciences, Canton, Mass.). The sensitivity of the subjects was unknown but the allergens were chosen based on the estimate that 80% of allergic individuals are believed to react to one or more of these allergens. Culture medium contained RPMI-1640 (Sigma) with 10% heat inactivated FCS (Sigma St. Louis, Mo.) and 100 unit/mL Penicillin and […] Streptomycin and 0.292 mg/mL Glutamine (GIBCO RL Invitrogen, Carlsbad, Calif.). The final allergen cocktail concentrations in culture medium were: Der p1 and Der f2 (dust mite), 1 mg/ml; Fel d1 (cat), 1.25 mg/ml; ragweed, 125 mg/ml. The total level of endotoxin contamination in culture medium was 0.057 Eu/ml. The cPLA2 inhibitor 4-{3-[1-benzhydryl-5-chloro-2-(2-{[(2,6-dimethylbenzyl)sulfonyl]amino}ethyl)-1H-indol-3-yl]propyl}benzoic acid was used at a concentration of 0.3 μM/ml. Zileuton, a 5-lipoxygenase inhibitor, was added at a concentration of 5 μM. The inhibitory activity of both the cPLA2 inhibitor and Zileuton samples were verified in a human whole blood assay. After 6 days in culture approximately 200 μL of supernatant was removed using an 8-channel pipettor without disturbing the cell pellet and placed into a collection plate for cytokine ELISA assays. To the remaining cell pellet 100 μL of RLT lysis buffer containing 1% beta-mercaptoethanol was added and snap frozen for RNA purification.
(§2) RNA was purified using QIA shredders and Rneasy mini kits (Qiagen, Valencia, Calif.). PBMC pellets frozen in RLT lysis buffer containing 1% β-mercaptoethanol were thawed and processed for total RNA isolation using the QIA shredder and RNeasy mini kit. A phenol:chloroform extraction was then performed, and the RNA was repurified using the RNeasy mini kit reagents. Eluted RNA was quantified using a Spectramax96 well plate UV reader (Molecular Devices, Sunnyvale, Calif., USA) monitoring A260/280 OD values. The quality of each RNA sample was assessed by capillary electrophoresis alongside an RNA molecular weight ladder on the Agilent 2100 bioanalyzer (Agilent Technologies, Palo Alto, Calif., USA). RNA samples were assigned quality values of intact (distinct 18S and 28S bands); partially degraded (discernible 18S and 28S bands with presence of low molecular weight bands) or completely degraded (no discernible 18S and 28S bands).
(§3) Labeled targets for oligonucleotide arrays were prepared using a modification of the procedure described by Lockhart et al. (Lockhart (1996) Nat. Biotechnol. 14:1675-80). Labeled targets were hybridized to the HG-U133A Affymetrix GeneChip Array as described in the Affymetrix technical manual. Eleven biotinylated control transcripts ranging in abundance from 3 parts per million (ppm) to 100 ppm were spiked into each sample to function as a standard curve (Hill (2001) Genome Biol. 2:RESEARCH0055). GeneChip MAS 5.0 software was used to evaluate the hybridization intensity, compute the signal value for each probe set and make an absent/present call.
(§4) GeneChips were required to pass the pre-set quality control criteria that the RNA quality metric required a 5′:3′ ratio. Two asthma subjects were excluded from the study due to failure to meet the RNA quality metric and 2 GeneChips from the group treated with cPLA2a inhibitor were excluded for the same reason. The signal value for each probe set was converted into a frequency value representative of the number of transcripts present in 10^6 transcripts by reference to the standard curve (Hill (2001) Genome Biol. 2:RESEARCH0055). […]

[2] = test system: PBMCs from healthy volunteers; experiment: HG-U133A transcriptional profiling of allergen-stimulated PBMCs of healthy volunteers (HV/WHV), with and without cPLA2 inhibitor, 6 days culture; format: cell-based, human
Description: as §1, §2, §3, §4

[3] = test system: PBMCs from asthma subjects; experiment: HG-U133A baseline gene expression in PBMCs of asthma subjects (AOS), cPLA2 inhibitor in the absence of allergen (no AG); format: cell-based, human
Description: PBMCs were stimulated in vitro with a cocktail containing 4 different allergens from house dust mite, ragweed and cat. Recombinant allergens, Der p1, Der f2, Fel d1 (Indoor Biotech, Charlottesville, Va.) and natural ragweed allergen (Allergy Lab, Seattle, Wash.) were selected and screened for endotoxin contamination (LAL Endotoxin Test, Catalog #HIT302, sensitivity, 0.0001 Eu/ml, Cell Sciences, Canton, Mass.). The sensitivity of the subjects was unknown but the allergens were chosen based on the estimate that 80% of allergic individuals are believed to react to one or more of these allergens. Culture medium contained RPMI-1640 (Sigma) with 10% heat inactivated FCS (Sigma St. Louis, Mo.) and 100 unit/mL Penicillin and […] Streptomycin and 0.292 mg/mL Glutamine (GIBCO RL Invitrogen, Carlsbad, Calif.). The final allergen cocktail concentrations in culture medium were: Der p1 and Der f2 (dust mite), 1 mg/ml; Fel d1 (cat), 1.25 mg/ml; ragweed, 125 mg/ml. […]
RNA was purified using QIA shredders and Rneasy mini kits (Qiagen, Valencia, Calif.). […] Eluted RNA was quantified using a Spectramax96 well plate UV reader (Molecular Devices, Sunnyvale, Calif., USA) monitoring A260/280 OD values. The quality of each RNA sample was assessed by capillary electrophoresis alongside an RNA molecular weight ladder on the Agilent 2100 bioanalyzer (Agilent Technologies, Palo Alto, Calif., USA). […]

[4] = gene C10ORF3, probeset 218542_at
[5] = gene CHIT1, probeset 208168_s_at
[6] = gene DAB2, probeset 201279_s_at
[7] = gene DAB2, probeset 210757_x_at
[8] = gene DUSP4, probeset 204015_s_at
[9] = gene FABP3, probeset 205738_s_at
[10] = gene FLJ23311, probeset 219990_at
[11] = gene HS3ST2, probeset 219697_at
[12] = gene PAPSS2, probeset 203060_s_at
[13] = gene PLEKHB2, probeset 201411_s_at
[14] = gene RACGAP1, probeset 222077_s_at
[15] = gene RUVBL1, probeset 201614_s_at
[16] = gene SLC36A1, probeset 213119_at
[17] = gene SLC38A6, probeset 214830_at
[18] = gene SLC39A14, probeset 212110_at
[19] = gene SLCO2B1, probeset 203472_s_at
[20] = gene SLCO2B1, probeset 203473_at
[21] = gene SMC2L1, probeset 204240_s_at
[22] = gene TRIP13, probeset 204033_at
[23] = gene UNK_AI859865, probeset 222036_s_at
[24] = gene UNK_BE966236, probeset 201890_at

Structure (SMILES): Cc1cccc(C)c1CS(=O)(=O)NCCc1c(CCCc2ccc(C(=O)O)cc2)c2cc(Cl)ccc2n1C(c1ccccc1)c1ccccc1 [cPLA2 inhibitor, 4-{3-[1-benzhydryl-5-chloro-2-(2-{[(2,6-dimethylbenzyl)sulfonyl]amino}ethyl)-1H-indol-3-yl]propyl}benzoic acid]
- inhibitory activity in a human whole blood assay (human whole blood): verified
- all T cell responsive and cell cycle genes in the pathway (Network 1, FIG. 3A/3C) ([1]; allergen + inhibitor): significantly changed towards the levels in the healthy subject group
- allergen-induced increase in expression of T cell genes ZAP70, CD28, CD3D ([1]; allergen + inhibitor): abolished
- genes initially down regulated in asthma samples in the presence of allergen, such as sialoadhesin (SN), CD84, TIMP3 ([1]; allergen + inhibitor): up-regulated in the presence of inhibition
- genes up-regulated in asthma samples in response to allergen, such as ZAP70, LCK, MCM2 ([1]; allergen + inhibitor): reduced to the levels seen in the allergen treated healthy controls
- other immune related genes: CD28, CD3D, IL-21R, HMGB1 ([1]; allergen + inhibitor): downregulated
- every single probe in Network 1 in the asthmatic population ([1]; allergen + inhibitor, FIG. 3C): altered level of expression
- asthma specific gene expression (167 allergen-asthma specific probesets) in the presence of the inhibitor ([1]; compared to the allergen treatment alone, 0.3 μM/ml): altered
- Fold Change AOS Allergen vs. cPLA2 inhibitor [1, 4]: −1.255
- Fold Change AOS Allergen vs. cPLA2 inhibitor ([1]; gene CDC2, probeset 203213_at): −1.163
- Fold Change AOS Allergen vs. cPLA2 inhibitor [1, 5]: 2.803
- Fold Change AOS Allergen vs. cPLA2 inhibitor [1, 6]: 2.442
- Fold Change AOS Allergen vs. cPLA2 inhibitor [1, 7]: 2.524
- Fold Change AOS Allergen vs. cPLA2 inhibitor ([1]; gene DUSP4, probeset 204014_at): −1.393
- Fold Change AOS Allergen vs. cPLA2 inhibitor [1, 8]: −1.344
- Fold Change AOS Allergen vs. cPLA2 inhibitor [1, 9]: 2.574
- Fold Change AOS Allergen vs. cPLA2 inhibitor [1, 10]: −1.362
- Fold Change AOS Allergen vs. cPLA2 inhibitor ([1]; gene GM2A, probeset 33646_g_at): 2.499
- Fold Change AOS Allergen vs. cPLA2 inhibitor ([1]; gene GM2A, probeset 209727_at): 2.415
- Fold Change AOS Allergen vs. cPLA2 inhibitor [1, 11]: 4.363
- Fold Change AOS Allergen vs. cPLA2 inhibitor ([1]; gene ME1, probeset 204059_s_at): 2.986
- Fold Change AOS Allergen vs. cPLA2 inhibitor ([1]; gene MELK, probeset 204825_at): −1.228
- Fold Change AOS Allergen vs. cPLA2 inhibitor ([1]; gene OIP5, probeset 213599_at): −1.141
- Fold Change AOS Allergen vs. cPLA2 inhibitor [1, 12]: 2.162
- Fold Change AOS Allergen vs. cPLA2 inhibitor [1, 13]: 2.51
- Fold Change AOS Allergen vs. cPLA2 inhibitor ([1]; gene POLG, probeset 213007_at): −1.163
- Fold Change AOS Allergen vs. cPLA2 inhibitor [1, 14]: −1.167
- Fold Change AOS Allergen vs. cPLA2 inhibitor [1, 15]: −1.215
- Fold Change AOS Allergen vs. cPLA2 inhibitor [1, 16]: 2.385
- Fold Change AOS Allergen vs. cPLA2 inhibitor [1, 17]: 2.908
- Fold Change AOS Allergen vs. cPLA2 inhibitor [1, 18]: −1.323
- Fold Change AOS Allergen vs. cPLA2 inhibitor [1, 19]: 2.698
- Fold Change AOS Allergen vs. cPLA2 inhibitor [1, 20]: 2.609
- Fold Change AOS Allergen vs. cPLA2 inhibitor [1, 21]: −1.245
- Fold Change AOS Allergen vs. cPLA2 inhibitor ([1]; gene SN, probeset 219519_s_at): 4.378
- Fold Change AOS Allergen vs. cPLA2 inhibitor [1, 22]: −1.358
- Fold Change AOS Allergen vs. cPLA2 inhibitor [1, 23]: −1.203
- Fold Change AOS Allergen vs. cPLA2 inhibitor [1, 24]: −1.167
- genes down regulated in response to allergen in Network 1 in the healthy population ([2]; allergen + inhibitor, data not shown): brought up to non-allergen-stimulated background levels
- Fold Change WHV Allergen vs. cPLA2 inhibitor [2, 4]: −1.335
- Fold Change WHV Allergen vs. cPLA2 inhibitor ([2]; gene CDC2, probeset 203213_at): −1.258
- Fold Change WHV Allergen vs. cPLA2 inhibitor [2, 5]: 2.013
- Fold Change WHV Allergen vs. cPLA2 inhibitor [2, 6]: 1.413
- Fold Change WHV Allergen vs. cPLA2 inhibitor [2, 7]: 1.326
- Fold Change WHV Allergen vs. cPLA2 inhibitor ([2]; gene DUSP4, probeset 204014_at): −1.388
- Fold Change WHV Allergen vs. cPLA2 inhibitor [2, 8]: −1.157
- Fold Change WHV Allergen vs. cPLA2 inhibitor [2, 9]: −1.037
- Fold Change WHV Allergen vs. cPLA2 inhibitor [2, 10]: 1.042
- Fold Change WHV Allergen vs. cPLA2 inhibitor ([2]; gene GM2A, probeset 33646_g_at): 1.344
- Fold Change WHV Allergen vs. cPLA2 inhibitor ([2]; gene GM2A, probeset 209727_at): 1.211
- Fold Change WHV Allergen vs. cPLA2 inhibitor [2, 11]: 1.288
- Fold Change WHV Allergen vs. cPLA2 inhibitor ([2]; gene ME1, probeset 204059_s_at): 1.518
- Fold Change WHV Allergen vs. cPLA2 inhibitor ([2]; gene MELK, probeset 204825_at): −1.213
- Fold Change WHV Allergen vs. cPLA2 inhibitor ([2]; gene OIP5, probeset 213599_at): −1.067
- Fold Change WHV Allergen vs. cPLA2 inhibitor [2, 12]: 1.13
- Fold Change WHV Allergen vs. cPLA2 inhibitor [2, 13]: 1.277
- Fold Change WHV Allergen vs. cPLA2 inhibitor ([2]; gene POLG, probeset 213007_at): −1.337
- Fold Change WHV Allergen vs. cPLA2 inhibitor [2, 14]: −1.108
- Fold Change WHV Allergen vs. cPLA2 inhibitor [2, 15]: −1.144
- Fold Change WHV Allergen vs. cPLA2 inhibitor [2, 16]: 1.279
- Fold Change WHV Allergen vs. cPLA2 inhibitor [2, 17]: 1.206
- Fold Change WHV Allergen vs. cPLA2 inhibitor [2, 18]: −1.568
- Fold Change WHV Allergen vs. cPLA2 inhibitor [2, 19]: 1.211
- Fold Change WHV Allergen vs. cPLA2 inhibitor [2, 20]: 1.237
- Fold Change WHV Allergen vs. cPLA2 inhibitor [2, 21]: −1.27
- Fold Change WHV Allergen vs. cPLA2 inhibitor ([2]; gene SN, probeset 219519_s_at): 1.618
- Fold Change WHV Allergen vs. cPLA2 inhibitor [2, 22]: −1.317
- Fold Change WHV Allergen vs. cPLA2 inhibitor [2, 23]: −1.29
- Fold Change WHV Allergen vs. cPLA2 inhibitor [2, 24]: −1.202
- effect on gene expression in the absence of allergen stimulation, asthmatic population [3]: does not affect gene expression

Reference: patent US20090155784A1, “ASSESSMENT OF ASTHMA AND ALLERGEN-DEPENDENT GENE EXPRESSION” (Wyeth, priority 2007, published 2009)
